Assay results: patent publication US20240327446A1, “DEUTERATED NUCLEOSIDE COMPOUNDS AND USE THEREOF” (MEDSHINE DISCOVERY INC., priority 2022, published 2024)

What was measured:
[1] = system: human coronavirus (HCoV) 229E; experiment: In vitro anti-coronavirus activity test, cytopathic effect (CPE) assay; type: cell-based, human coronavirus (HCoV) 229E in MRC5 cells; details: MRC5, 72 h, read-out: EC50 (median effective concentration)
Method: (§1) To detect the in vitro anti-human coronavirus (HCOV) 229E activity of the compound using the cytopathic effect (CPE) assay, and simultaneously evaluate the cytotoxicity of the compound.
(§2) The test compound was prepared as a 20 mM stock solution using DMSO. The initial testing concentration of the test compound was 50 μM, tested at 8 concentrations with 4-fold gradient dilutions, in duplicate wells. The control compound Remdesivir would be provided by WuXi AppTec. Remdesivir would be tested at 8 concentrations with 3-fold gradient dilutions, in duplicate wells.
(§3) MRC5 cells and coronavirus HCoV 229E were purchased from ATCC. MRC5 cells were cultured in EMEM (Sigma) culture medium supplemented with 10% fetal bovine serum (Excell), 1% double antibiotic (Hyclone), 1% L-glutamine (Gibco), and 1% non-essential amino acids (Gibco). […]
(§4) Cells were seeded in a 96-well microplate at a specific density (Table 1) and cultured overnight in a 5% CO2, 37° C. incubator. […] Cell viability was detected using the CellTiter Glo (Promega) cell viability assay kit. […]
Inhibition rate (%)=(test well reading value−average value of virus control)/(average value of cell control−average value of virus control)×100 […]

[2] = in vitro; type: cell-based; details: human
Method: as §1, §2, §3, §4
Cell viability (%)=(test well reading value−average value of culture medium control)/(average value of cell control−average value of culture medium control)×100 […]

[2H][C@@]1(O)[C@H](O)[C@@H](COC(=O)C(C)C)O[C@@]1(C#N)c1ccc2c(N)ncnn12 [Compound 1]
EC50 [1]: 220 nM | CC50 at 3 days [2]: > 50000 nM
